Measured values taken from patent publication US20210121380A1, “Amino Acid Containing Oral Care Composition for Treating Caries By Reducing Lactic Acid Release in Oral Biofilms” (3M INNOVATIVE PROPERTIES COMPANY, priority 2018, published 2021).

Tests used:
[1] = tested on: human saliva derived microcosm biofilm; experiment: Mass of biofilm (wet biomass) grown in MCM human derived saliva biofilm system; assay type: cell-based; conditions: read-out: Biomass [% from control]; for activity at 2.7 %: Example 1, amino acid 2.7 wt. %
Procedure: (§1) A composition was prepared by dissolving the amino acid to be tested in de-ionized water in the given amount.
(§2) Biofilms were grown in a MCM (mucine containing medium plus 1% sucrose) human derived saliva biofilm system.
(§3) A general procedure is summarized below: • 1. Four-hour incubation of bovine sample disks with saliva-mcm (mucine containing medium plus 1% sucrose) at 37° C. • 2. Fresh medium (MCM with different amino acids) for 2-hour incubation at 37° C. • 3. Fresh medium (MCM with different amino acids) for storage over night at 37° C. • 4. Second Day: Fresh medium (MCM with different amino acids) after 22 and 24 hours. • 5. Samples were taken after 26 hours biofilm growth for measurements of lactic acid release and biomass evaluation.
The mass of biofilm was determined as follows: Filter papers are put into 1.5 ml-reaction tubes and were labelled and weighted. The biofilm, that was grown on the enamel disks is carefully wiped off with filter paper. The filter paper containing the wet biofilms were placed back into the respective reaction tube and re-weighted. The wet biomass is calculated from the difference in weight.
(§4) In this experiment, the MCM human derived saliva biofilm system was used. The biofilms were grown for 26 hours in continuous presence of sucrose and different amino acids.

[2] = tested on: human saliva derived microcosm biofilm; experiment: Lactic acid release of biofilm grown in MCM human derived saliva biofilm system (LDH-NAD-PMS-MTT enzyme assay); assay type: cell-based, lactic acid producing bacteria (human derived saliva); conditions: for effectiveness for reducing the lactic-acid release of bacteria in a biofilm (in words): reduction by more than 40% vs control considered effective; for activity at 2.7 %: amino acid 2.7 wt. %
Procedure: as §1, §2, §3
To determine the activity of the grown biofilm, the production of lactic acid in the supernatant (0.75 ml PBS-solution with 5% sucrose per each sample disc) is measured by using the Lactic acid dehydrogenase (LDH)—Nicotinamid-adenin-dinukleotid (NAD)—Phenazine Methosulphate (PMS)—Thiazolyl blue tetrazolium bromide (MTT)—enzyme assay. To guarantee that only freshly produced lactic acid is determined, the samples are washed (in three steps, each lasting 30 sec) in 1.5 ml PBS-solution. The production of lactic acid is evaluated by measuring the lactic acid amount at given points for 30 min. The determination points are: 0 min 15 min and 30 min. For each reading point a sample of 50 μl is taken out of each well. The lactic acid amount at each reading point is determined by using the enzyme assay described above. Lactic acid amount is calculated according to the lactic acid calibration curve.
as §4

[3] = Homo sapiens, Example 1, 26 h biofilm growth, continuous presence of sucrose and amino acid, read-out: Lactic Acid Release after 30 min [% from control]
[4] = 26 h, Example 1, amino acid 8.0 wt. %, 26 h biofilm growth
[5] = Homo sapiens, Example 1, amino acid 8.0 wt. %, 26 h biofilm growth, continuous presence of sucrose and amino acid, read-out: Lactic Acid Release after 30 min [% from control]
[6] = Example 1, amino acid 4.0 wt. %, 26 h biofilm growth
[7] = Homo sapiens, Example 1, amino acid 4.0 wt. %, 26 h biofilm growth, continuous presence of sucrose and amino acid, read-out: Lactic Acid Release after 30 min [% from control]

With `N[C@@H](Cc1c[nH]c2ccccc12)C(=O)O` [Tryptophan] the activity at 0.25 % ([1]; 26 h) was 181% and the “effectiveness for reducing the lactic-acid release of bacteria in a biofilm (in words)” value [2] was “useful”.

`N[C@@H](Cc1ccccc1)C(=O)O` [Phenylalanine] showed an activity at 0.5 % ([1]; 26 h, Example 3, phenylalanine 0.5 wt. %) of 181%, an activity at 1 % ([1]; 26 h, Example 3, phenylalanine 1.0 wt. %) of 124% and an activity at 1.5 % ([1]; 26 h, Example 3, phenylalanine 1.5 wt. %) of 92.7%. For the same compound, the activity at 2 % ([1]; 26 h, Example 3, phenylalanine 2.0 wt. %) was 96.5%, the activity at 2.5 % ([1]; 26 h, Example 3, phenylalanine 2.5 wt. %) was 66.9% and the activity at 2.7 % ([1]; 26 h biofilm growth) was 136%. For the same compound, the activity at 0.5 % ([2]; Homo sapiens, 0.5 h, Example 3, phenylalanine 0.5 wt. %, continuous presence with sucrose, read-out: Lactic Acid Release after 30 min [% from control]) was 45.9%, the activity at 1 % ([2]; Homo sapiens, 0.5 h, Example 3, phenylalanine 1.0 wt. %, continuous presence with sucrose, read-out: Lactic Acid Release after 30 min [% from control]) was 32.1% and the activity at 1.5 % ([2]; Homo sapiens, 0.5 h, Example 3, phenylalanine 1.5 wt. %, continuous presence with sucrose, read-out: Lactic Acid Release after 30 min [% from control]) was 16.7%. For the same compound, the activity at 2 % ([2]; Homo sapiens, 0.5 h, Example 3, phenylalanine 2.0 wt. %, continuous presence with sucrose, read-out: Lactic Acid Release after 30 min [% from control]) was 12.1%, the activity at 2.5 % ([2]; Homo sapiens, 0.5 h, Example 3, phenylalanine 2.5 wt. %, continuous presence with sucrose, read-out: Lactic Acid Release after 30 min [% from control]) was 3.5% and the activity at 2.7 % [2, 3] was 8.6%. For the same compound, the “effectiveness for reducing the lactic-acid release of bacteria in a biofilm (in words)” value [2] was “useful”.

`NC(=O)C[C@H](N)C(=O)O` [Asparagine, reference compound] was tested, and the activity at 0.5 % ([1]; Example 1, amino acid 0.5 wt. %, 26 h biofilm growth) was 102% and the activity at 0.5 % ([2]; Homo sapiens, Example 1, amino acid 0.5 wt. %, 26 h biofilm growth, continuous presence of sucrose and amino acid, read-out: Lactic Acid Release after 30 min [% from control]) was 94.7%.

In the case of `NCCCC[C@H](N)C(=O)O` [Lysine], the activity at 8 % ([1]; 26 h) is reported as 87.8% and the “effectiveness for reducing the lactic-acid release of bacteria in a biofilm (in words)” value [2] is reported as “useful”.

With `NC(=O)CC[C@H](N)C(=O)O` [glutamine, reference compound] the “effectiveness for reducing the lactic-acid release of bacteria in a biofilm (in words)” value [2] was “not effective”.

With `CC(C)C[C@H](N)C(=O)O` [Leucine] the activity at 2.7 % ([1]; 26 h biofilm growth) was 85.9%, the activity at 2.7 % [2, 3] was 36.7% and the “effectiveness for reducing the lactic-acid release of bacteria in a biofilm (in words)” value [2] was “useful”.

`N[C@@H](CO)C(=O)O` [Serine] was tested, and the activity at 2.7 % ([1]; 26 h biofilm growth) was 84.6%, the activity at 2.7 % [2, 3] was 11.8% and the “effectiveness for reducing the lactic-acid release of bacteria in a biofilm (in words)” value [2] was “useful”.

For `O=C(O)[C@@H]1CCCN1` [Proline, reference compound], the activity at 8 % [1, 4] was 110%, the activity at 8 % [2, 5] was 74.7% and the “effectiveness for reducing the lactic-acid release of bacteria in a biofilm (in words)” value [2] was “not effective”.

For `CC[C@H](C)[C@H](N)C(=O)O` [Isoleucine], the activity at 4 % [1, 6] was 104%, the activity at 4 % [2, 7] was 21.9% and the “effectiveness for reducing the lactic-acid release of bacteria in a biofilm (in words)” value [2] was “useful”.

Compound `N[C@@H](CCC(=O)O)C(=O)O` [Glutamic acid, reference compound] has an activity at 0.215 % ([1]; Example 1, amino acid 0.215 wt. %, 26 h biofilm growth) of 80.2% and an activity at 0.215 % ([2]; Homo sapiens, Example 1, amino acid 0.215 wt. %, 26 h biofilm growth, continuous presence of sucrose and amino acid, read-out: Lactic Acid Release after 30 min [% from control]) of 90.4%.

In the case of `C[C@H](N)C(=O)O` [Alanine, reference compound], the activity at 4 % [1, 6] is reported as 141% and the activity at 4 % [2, 7] is reported as 99.7%.

In the case of `N=C(N)NCCC[C@H](N)C(=O)O` [Arginine, reference compound], the activity at 8 % ([1]; 26 h) is reported as 247% and the “effectiveness for reducing the lactic-acid release of bacteria in a biofilm (in words)” value [2] is reported as “not effective”.

`NCC(=O)O` [Glycine] gave an activity at 8 % [1, 4] of 77.2%, an activity at 0.5 % ([1]; 26 h, Example 2, glycine 0.5 wt. %) of 143% and an activity at 1 % ([1]; 26 h, Example 2, glycine 1.0 wt. %) of 146%. For the same compound, the activity at 2 % ([1]; 26 h, Example 2, glycine 2.0 wt. %) was 96.7%, the activity at 4 % ([1]; 26 h, Example 2, glycine 4.0 wt. %) was 56.2% and the activity at 8 % ([1]; 26 h, Example 2, glycine 8.0 wt. %) was 42.2%. It also gave an activity at 0.5 % ([2]; Homo sapiens, 0.5 h, Example 2, glycine 0.5 wt. %, continuous presence with sucrose, read-out: Lactic Acid Release after 30 min [% from control]) of 97.5%, an activity at 1 % ([2]; Homo sapiens, 0.5 h, Example 2, glycine 1.0 wt. %, continuous presence with sucrose, read-out: Lactic Acid Release after 30 min [% from control]) of 51.6% and an activity at 2 % ([2]; Homo sapiens, 0.5 h, Example 2, glycine 2.0 wt. %, continuous presence with sucrose, read-out: Lactic Acid Release after 30 min [% from control]) of 32.3%. For the same compound, the activity at 4 % ([2]; Homo sapiens, 0.5 h, Example 2, glycine 4.0 wt. %, continuous presence with sucrose, read-out: Lactic Acid Release after 30 min [% from control]) was 1.6%, the activity at 8 % ([2]; Homo sapiens, 0.5 h, Example 2, glycine 8.0 wt. %, continuous presence with sucrose, read-out: Lactic Acid Release after 30 min [% from control]) was 5.6% and the activity at 8 % [2, 5] was 5.7%. The “effectiveness for reducing the lactic-acid release of bacteria in a biofilm (in words)” value [2] was “useful”.

`N[C@@H](CS)C(=O)O` [Cysteine, reference compound] gave an activity at 0.625 % ([1]; Example 1, amino acid 0.625 wt. %, 26 h biofilm growth) of 56.2% and an activity at 0.625 % ([2]; Homo sapiens, Example 1, amino acid 0.625 wt. %, 26 h biofilm growth, continuous presence of sucrose and amino acid, read-out: Lactic Acid Release after 30 min [% from control]) of 85.8%.

`C[C@@H](O)[C@H](N)C(=O)O` [Threonine] was tested, and the activity at 8 % ([1]; Example 1, amino acid 8.0 wt. %, 26 h biofilm growth) was 190%, the activity at 8 % [2, 5] was 54.6% and the “effectiveness for reducing the lactic-acid release of bacteria in a biofilm (in words)” value [2] was “useful”.

With `CC(C)[C@H](N)C(=O)O` [Valine] the activity at 5 % ([1]; Example 1, amino acid 5.0 wt. %, 26 h biofilm growth) was 209%, the activity at 5 % ([2]; Homo sapiens, Example 1, amino acid 5.0 wt. %, 26 h biofilm growth, continuous presence of sucrose and amino acid, read-out: Lactic Acid Release after 30 min [% from control]) was 42.1% and the “effectiveness for reducing the lactic-acid release of bacteria in a biofilm (in words)” value [2] was “useful”.

For `N[C@@H](Cc1ccc(O)cc1)C(=O)O` [Tyrosine, reference compound], the activity at 0.0095 % ([1]; Example 1, amino acid 0.0095 wt. %, 26 h biofilm growth) was 95.3%, the activity at 0.0095 % ([2]; Homo sapiens, Example 1, amino acid 0.0095 wt. %, 26 h biofilm growth, continuous presence of sucrose and amino acid, read-out: Lactic Acid Release after 30 min [% from control]) was 112% and the “effectiveness for reducing the lactic-acid release of bacteria in a biofilm (in words)” value [2] was “not effective”.

With `N[C@@H](Cc1c[nH]cn1)C(=O)O` [Histidine, reference compound] the activity at 3.8 % ([1]; Example 1, amino acid 3.8 wt. %, 26 h biofilm growth) was 106%, the activity at 3.8 % ([2]; Homo sapiens, Example 1, amino acid 3.8 wt. %, 26 h biofilm growth, continuous presence of sucrose and amino acid, read-out: Lactic Acid Release after 30 min [% from control]) was 150% and the “effectiveness for reducing the lactic-acid release of bacteria in a biofilm (in words)” value [2] was “not effective”.

In the case of `N[C@@H](CC(=O)O)C(=O)O` [Aspartic acid, reference compound], the activity at 0.1125 % ([1]; Example 1, amino acid 0.1125 wt. %, 26 h biofilm growth) is reported as 82.1%, the activity at 0.1125 % ([2]; Homo sapiens, Example 1, amino acid 0.1125 wt. %, 26 h biofilm growth, continuous presence of sucrose and amino acid, read-out: Lactic Acid Release after 30 min [% from control]) is reported as 101% and the “effectiveness for reducing the lactic-acid release of bacteria in a biofilm (in words)” value [2] is reported as “not effective”.

With `CSCC[C@H](N)C(=O)O` [Methionine] the activity at 4.8 % ([1]; 26 h, Example 1, amino acid 4.8 wt. %, 26 h biofilm growth) was 84.9%, the activity at 4.8 % ([2]; Homo sapiens, Example 1, amino acid 4.8 wt. %, 26 h biofilm growth, continuous presence of sucrose and amino acid, read-out: Lactic Acid Release after 30 min [% from control]) was 26.9% and the “effectiveness for reducing the lactic-acid release of bacteria in a biofilm (in words)” value [2] was “useful”.
